Measured values as given in ChEMBL document CHEMBL4364273, “Discovery of SHR1653, a Highly Potent and Selective OTR Antagonist with Improved Blood-Brain Barrier Penetration” (ACS Med Chem Lett, 2019).

Key:
Vasopressin V1a receptor = Vasopressin V1a receptor (Homo sapiens, UniProt P37288); experiment: Antagonist activity at human vasopressin V1A receptor expressed in HEK293 cells assessed as decrease in vasopressin-stimulated calcium flux measured after 10 mins by Fluo-4 dye based microplate reader based assay; assay type: functional, cell-based
Sequence of Vasopressin V1a receptor (P37288 whole entry): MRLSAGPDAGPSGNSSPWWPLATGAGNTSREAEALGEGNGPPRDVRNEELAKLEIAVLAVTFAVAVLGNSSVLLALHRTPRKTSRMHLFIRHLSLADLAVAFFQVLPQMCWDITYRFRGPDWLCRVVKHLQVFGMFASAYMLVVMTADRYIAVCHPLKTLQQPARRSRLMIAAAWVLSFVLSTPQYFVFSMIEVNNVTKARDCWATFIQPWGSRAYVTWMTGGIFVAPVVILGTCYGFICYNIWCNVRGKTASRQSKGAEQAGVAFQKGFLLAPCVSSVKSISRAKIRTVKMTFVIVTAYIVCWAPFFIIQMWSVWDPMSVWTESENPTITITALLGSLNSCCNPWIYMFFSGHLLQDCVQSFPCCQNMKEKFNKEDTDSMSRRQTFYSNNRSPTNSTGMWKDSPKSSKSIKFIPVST

Oxytocin receptor = molecular target: T1, Oxytocin receptor (Homo sapiens, UniProt P30559); experiment: Antagonist activity at human OTR expressed in HEK293 cells assessed as decrease in calcium flux measured after 10 mins in […] by Fluo-4 dye based microplate reader based assay; assay type: functional, cell-based
T1 sequence (P30559 whole entry): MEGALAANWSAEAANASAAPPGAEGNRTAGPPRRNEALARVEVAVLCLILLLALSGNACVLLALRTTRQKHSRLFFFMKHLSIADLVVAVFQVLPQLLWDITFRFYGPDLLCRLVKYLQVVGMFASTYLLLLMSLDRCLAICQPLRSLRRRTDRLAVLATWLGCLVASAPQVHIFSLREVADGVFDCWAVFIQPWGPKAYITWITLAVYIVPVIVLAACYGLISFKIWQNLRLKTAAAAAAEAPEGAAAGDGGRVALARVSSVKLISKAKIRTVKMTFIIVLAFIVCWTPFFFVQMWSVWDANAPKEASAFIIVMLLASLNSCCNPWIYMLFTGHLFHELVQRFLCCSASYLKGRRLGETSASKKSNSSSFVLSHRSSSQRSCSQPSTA

[1] = Unbound fraction in Sprague-Dawley rat plasma by LC-MS/MS analysis; assay type: ADME, cell-free
Rattus norvegicus = experiment: Anti-premature ejaculation activity in anesthetized oxytocin-induced uterine contraction Sprague-Dawley rat model assessed as decrease in intraluminal uterine pressure at 30 mg/kg, po treated for 20 mins and 1 hr later treated with oxytocin and measured for 15 to 30 mins relative to control; assay type: functional
[2] = Unbound brain-to-plasma concentration ratio in Sprague-Dawley rat by LC-MS/MS analysis; assay type: ADME, cell-free; settings: read-out: K(p,uu,brain)
[3] = Plasma concentration in Sprague-Dawley rat by LC-MS/MS analysis; assay type: ADME, cell-free
[4] = Unbound fraction in Sprague-Dawley rat brain by LC-MS/MS analysis; assay type: ADME, tissue-based
[5] = Drug concentration in Sprague-Dawley rat brain by LC-MS/MS analysis; assay type: ADME, tissue-based; settings: in vivo
[6] = AUC (0 to 24 hrs) in anesthetized oxytocin-induced uterine contraction Sprague-Dawley rat model at 30 mg/kg, po; assay type: ADME, organism-based; parameters: dose 30 mg/kg, time < 24 hr, route oral; settings: in vivo
[7] = AUC (0 to 24 hrs) in Sprague-Dawley rat at 2 mg/kg, po by LC-MS/MS analysis; assay type: ADME, organism-based; parameters: time < 24 hr, dose 2 mg/kg, route oral; settings: in vivo
[8] = Half-life in Sprague-Dawley rat at 2 mg/kg, po measured for 24 hrs by LC-MS/MS analysis; assay type: ADME, organism-based; settings: in vivo
[9] = Clearance in Sprague-Dawley rat at 1 mg/kg, iv measured for 24 hrs by LC-MS/MS analysis; assay type: ADME, organism-based; settings: in vivo
[10] = Cmax in Sprague-Dawley rat at 2 mg/kg, po measured for 24 hrs by LC-MS/MS analysis; assay type: ADME, organism-based; parameters: dose 2 mg/kg, route oral; settings: in vivo
[11] = molecular target: Voltage-gated inwardly rectifying potassium channel KCNH2 (Homo sapiens, UniProt Q12809); experiment: Inhibition of human ERG
Sequence of Voltage-gated inwardly rectifying potassium channel KCNH2 (Q12809 whole entry): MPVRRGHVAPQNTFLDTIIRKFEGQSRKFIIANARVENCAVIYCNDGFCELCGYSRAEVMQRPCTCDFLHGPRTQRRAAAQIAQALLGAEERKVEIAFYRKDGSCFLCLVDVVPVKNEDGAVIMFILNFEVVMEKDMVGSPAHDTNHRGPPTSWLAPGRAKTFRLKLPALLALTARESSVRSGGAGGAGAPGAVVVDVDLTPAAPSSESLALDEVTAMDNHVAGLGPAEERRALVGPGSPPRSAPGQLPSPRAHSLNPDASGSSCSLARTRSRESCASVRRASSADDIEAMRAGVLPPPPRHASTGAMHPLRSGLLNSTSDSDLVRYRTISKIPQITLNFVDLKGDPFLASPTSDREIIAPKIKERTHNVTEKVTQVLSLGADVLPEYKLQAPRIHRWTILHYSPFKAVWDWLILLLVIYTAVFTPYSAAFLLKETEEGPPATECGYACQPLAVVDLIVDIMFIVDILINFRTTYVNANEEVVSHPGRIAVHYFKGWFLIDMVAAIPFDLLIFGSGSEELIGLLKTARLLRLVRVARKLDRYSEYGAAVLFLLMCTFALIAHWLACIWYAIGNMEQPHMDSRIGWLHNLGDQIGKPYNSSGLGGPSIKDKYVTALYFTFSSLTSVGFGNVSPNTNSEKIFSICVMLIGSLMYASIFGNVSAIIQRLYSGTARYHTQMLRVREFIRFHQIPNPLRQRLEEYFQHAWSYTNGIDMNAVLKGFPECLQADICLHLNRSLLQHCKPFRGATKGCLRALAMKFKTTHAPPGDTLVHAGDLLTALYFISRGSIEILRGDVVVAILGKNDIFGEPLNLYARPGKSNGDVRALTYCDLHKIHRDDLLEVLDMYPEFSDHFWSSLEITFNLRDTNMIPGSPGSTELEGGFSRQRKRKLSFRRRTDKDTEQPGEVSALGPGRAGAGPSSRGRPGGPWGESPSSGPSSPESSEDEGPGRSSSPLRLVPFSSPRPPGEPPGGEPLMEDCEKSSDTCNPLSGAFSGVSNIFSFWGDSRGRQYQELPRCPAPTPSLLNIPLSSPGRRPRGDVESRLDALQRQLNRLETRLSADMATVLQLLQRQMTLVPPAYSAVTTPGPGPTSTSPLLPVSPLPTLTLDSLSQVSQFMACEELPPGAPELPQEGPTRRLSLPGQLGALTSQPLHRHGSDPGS

Vasopressin V1b receptor = molecular target: T2, Vasopressin V1b receptor (Homo sapiens, UniProt P47901); experiment: Antagonist activity at human vasopressin V1B receptor expressed in HEK293 cells assessed as decrease in vasopressin-stimulated calcium flux measured after 10 mins by Fluo-4 dye based microplate reader based assay; assay type: functional, cell-based
T2 sequence (P47901 whole entry): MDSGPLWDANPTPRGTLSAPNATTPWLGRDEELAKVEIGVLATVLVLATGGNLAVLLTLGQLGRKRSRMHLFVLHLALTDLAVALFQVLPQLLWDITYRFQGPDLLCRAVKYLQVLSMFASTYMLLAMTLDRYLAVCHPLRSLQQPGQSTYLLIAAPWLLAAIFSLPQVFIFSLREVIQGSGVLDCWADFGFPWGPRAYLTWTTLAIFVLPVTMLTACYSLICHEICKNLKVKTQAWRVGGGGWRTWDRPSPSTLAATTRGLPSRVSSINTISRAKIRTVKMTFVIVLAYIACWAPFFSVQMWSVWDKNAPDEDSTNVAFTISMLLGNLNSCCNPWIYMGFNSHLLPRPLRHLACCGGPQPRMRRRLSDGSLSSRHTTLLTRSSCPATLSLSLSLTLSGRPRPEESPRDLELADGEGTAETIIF

Row | IC50 (Vasopressin V1a receptor) | IC50 (Oxytocin receptor) | SMILES | further results
1 | 1870 nM | – | COc1ccc(-n2c(C(F)F)nnc2N2C[C@@H]3C[C@]3(c3ccc(F)cc3Cl)C2)cn1 | –
2 | 11000 nM | 433 nM | COc1ccc(-n2c(C3CC3)nnc2N2C[C@@H]3C[C@]3(c3ccc(F)cc3Cl)C2)cn1 | –
3 | – | 826 nM | COc1ccc(-n2c(COC3CCOCC3)nnc2N2C[C@@H]3C[C@]3(c3ccc(F)cc3Cl)C2)cn1 | –
4 | – | 23.2 nM | COCc1nnc(N2CC(Oc3ccc(F)cc3Cl)C2)n1-c1ccc(OC)nc1 | fraction unbound [1]: 0.0664; inhibition in vivo at 30 mg/kg (Rattus norvegicus): 76.5%; Kp uu [2]: 0.064; Cp [3]: 699 ng/mL; fraction unbound [4]: 0.0165; Ct [5]: 179 ng/g; AUC(0-t) at 24 h [6]: 39500 ng·h/mL
5 | – | 9.2 nM | CC[C@H](C)[C@@H]1C(=O)N[C@H](C2Cc3ccccc3C2)C(=O)N1[C@@H](C(=O)N1CCOCC1)c1ccc(C)nc1C [EPELSIBAN] | –
6 | – | 121 nM | COCc1nnc(N2CC3CN(c4ccc(F)cc4Cl)C3C2)n1-c1ccc(OC)nc1 (stereo not given) | –
7 | – | 2560 nM | COCc1nnc(N2CC3COCC3(c3ccc(F)cc3Cl)C2)n1-c1ccc(OC)nc1 (stereo not given) | –
8 | – | 184 nM | COc1ccc(-n2c(CO[C@H]3CCOC3)nnc2N2C[C@@H]3C[C@]3(c3ccc(F)cc3Cl)C2)cn1 | –
9 | 819 nM | – | COc1ccc(-n2c(COCCF)nnc2N2C[C@@H]3C[C@]3(c3ccc(F)cc3Cl)C2)cn1 | –
10 | – | 401 nM | COCc1nnc(N2CC3(CCc4cc(F)ccc4O3)C2)n1-c1ccc(OC)nc1 | –
11 | – | 10 nM | COCc1nnc(N2CCC(c3ccc(F)cc3Cl)CC2)n1-c1ccc(OC)nc1 | AUC(0-t) at 24 h [7]: 767 ng·h/mL; half-life [8]: 2.39 h; clearance [9]: 45 mL/min/kg; Cmax [10]: 96 ng/mL
12 | – | 6760 nM | COCc1nnc(N2CC3(C2)OCc2cc(F)ccc23)n1-c1ccc(OC)nc1 | –
13 | – | 1230 nM | COCc1nnc(N2C3CCC2CC(Oc2ccc(F)cc2Cl)C3)n1-c1ccc(OC)nc1 (stereo not given) | –
14 | 1760 nM | 9.3 nM | CCOCc1nnc(N2C[C@@H]3C[C@]3(c3ccc(F)cc3Cl)C2)n1-c1ccc(OC)nc1 | AUC(0-t) at 24 h [7]: 1020 ng·h/mL; half-life [8]: 3.48 h; IC50 [11]: 6100 nM; clearance [9]: 17.8 mL/min/kg; Cmax [10]: 135 ng/mL
15 | 769 nM | 235 nM | COc1ccc(-n2c(CC#N)nnc2N2C[C@@H]3C[C@]3(c3ccc(F)cc3Cl)C2)cn1 | IC50 (Vasopressin V1b receptor): 44400 nM
16 | – | 850 nM | COCc1nnc(N2CC3CN(c4ccc(F)cc4Cl)CC32)n1-c1ccc(OC)nc1 (stereo not given) | –
17 | 1980 nM | 223 nM | COc1ccc(-n2c(CO[C@@H]3CCOC3)nnc2N2C[C@@H]3C[C@]3(c3ccc(F)cc3Cl)C2)cn1 | –
18 | – | 910 nM | COCc1nnc(N2CCN(Cc3ccc(F)cc3Cl)CC2)n1-c1ccc(OC)nc1 | –
19 | – | 1380 nM | COCc1nnc(N2C[C@H]3C[C@@H](Oc4ccc(F)cc4Cl)C[C@H]3C2)n1-c1ccc(OC)nc1 | –
20 | – | 27 nM | COCc1nnc(N2CCC(c3ccc(F)cc3Cl)C2)n1-c1ccc(OC)nc1 (stereo not given) | AUC(0-t) at 24 h [7]: 478 ng·h/mL; half-life [8]: 1.89 h; Cmax [10]: 204 ng/mL
21 | – | 30 nM | COCc1nnc(N2C[C@@H]3C[C@]3(c3cccc(F)c3Cl)C2)n1-c1ccc(OC)nc1 | AUC(0-t) at 24 h [7]: 34 ng·h/mL; half-life [8]: 3.15 h; Cmax [10]: 15 ng/mL
22 | 810 nM | – | COCc1nnc(N2C[C@@H]3C[C@]3(c3ccc(F)cc3Cl)C2)n1-c1ccc2c(c1)OCO2 | –

Row | SMILES | IC50 (Vasopressin V1a receptor) | IC50 (Oxytocin receptor) | further results
23 | COCc1nnc(C2CCN(Cc3ccc(F)cc3Cl)CC2)n1-c1ccc(OC)nc1 | – | 2790 to 3000 nM | –
